The text below walks through data of US7160901B2, “Substituted indolinones, preparation thereof and their use as pharmaceutical compositions” (Boehringer Ingelheim Pharma GmbH & Co. KG, priority 2000, dated 2007).

pIC50: −log10 of the molar value.

System in one data set: not given
Test: not given
Settings: not given
Broadly, the melting point is the temperature of the solid-liquid transition. As for `CC(=O)N(CCN)c1ccc(N/C(=C2\C(=O)Nc3ccc(NS(=O)(=O)c4ccccc4)cc32)c2ccccc2)cc1` [Example 1, (Z)-3-{1-[4-(N-acetyl-N-(2-aminoethyl)-amino)-phenylamino]-1-phenyl-methylidene}-5-phenylsulphonylamino-2-indolinone], the melting point turned out to be 216 °C.
On the same count and under the same terms, the figure for `CS(=O)(=O)Nc1ccc2c(c1)/C(=C(/Nc1ccc(CN3CCCCC3)cc1)c1ccccc1)C(=O)N2` [Example 98, (Z)-3-[1-(4-piperidinomethyl-phenylamino)-1-phenyl-methylidene]-5-methylsulphonylamino-2-indolinone] is 266 °C.
On the same count and under the same terms, the figure for `CCOC(=O)Cc1ccc(N/C(=C2\C(=O)Nc3ccc(NS(=O)(=O)c4ccccc4)cc32)c2ccccc2)cc1` [Example 152, (Z)-3-[1-(4-ethoxycarbonylmethyl-phenylamino)-1-phenyl-methylidene]-5-phenylsulphonylamino-2-indolinone] is 248 to 249 °C.
Still for that read-out and setting: the same measure for `O=C(O)Cc1ccc(N/C(=C2\C(=O)Nc3ccc(NS(=O)(=O)c4ccccc4)cc32)c2ccccc2)cc1` [Example 153, (Z)-3-[1-(4-carboxymethyl-phenylamino)-1-phenyl-methylidene]-5-phenylsulphonylamino-2-indolinone]: 305 to 306 °C.
`O=C(Cc1ccc(N/C(=C2\C(=O)Nc3ccc(NS(=O)(=O)c4ccccc4)cc32)c2ccccc2)cc1)NCc1ccccc1` [Example 154, (Z)-3-{1-[4-(benzylaminocarbonylmethyl)-phenylamino]-1-phenyl-methylidene}-5-phenylsulphonylamino-2-indolinone] yielded a melting point of 219 to 220 °C.
Still for that read-out and setting: the same measure for `CS(=O)(=O)N(CC(N)=O)c1ccc(N/C(=C2\C(=O)Nc3ccc(NS(=O)(=O)c4ccccc4)cc32)c2ccccc2)cc1` [Example 155, (Z)-3-{1-[4-(N-(aminocarbonylmethyl)-N-methylsulphonyl-amino)-phenylamino]-1-phenyl-methylidene}-5-phenylsulphonylamino-2-indolinone]: 216 to 217 °C; for `CC(=O)N(CCN(C)C)c1ccc(N/C(=C2\C(=O)Nc3ccc(N(C)S(=O)(=O)c4ccccc4)cc32)c2ccccc2)cc1` [Example 208, (Z)-3-{1-[4-(N-(2-dimethylamino-ethyl)-N-acetyl-amino)-phenylamino)-1-phenyl-methylidene}-5-(N-methyl-N-phenylsulphonyl-amino)-2-indolinone]: 217 °C.
The same measure, in the same setting: the figure for `CN(C(=O)CN1CCCCC1)c1ccc(N/C(=C2\C(=O)Nc3ccc(N(C)S(=O)(=O)c4ccccc4)cc32)c2ccccc2)cc1` [Example 209, (Z)-3-{1-[4-(N-methyl-N-piperidinomethylcarbonyl-amino)-phenylamino)-1-phenyl-methylidene}-5-(N-methyl-N-phenylsulphonyl-amino)-2-indolinone] is 160 °C.
Same read-out and setting: the same measure for `CN(C)Cc1cccc(N/C(=C2\C(=O)Nc3ccc(N(C)S(=O)(=O)c4ccccc4)cc32)c2ccccc2)c1` [Example 210, (Z)-3-[1-(3-dimethylaminomethyl-phenylamino)-1-phenyl-methylidene]-5-(N-methyl-N-phenylsulphonyl-amino)-2-indolinone]: 226 °C.

A further data set has as its system Leiomyosarcoma tumour cell line SK-UT-1B. As to the kind of experiment: Test 1: inhibition of the proliferation of cultivated human tumour cells (14C-thymidine incorporation), SK-UT-1B. The conditions noted are these: Homo sapiens, Skut1B; in vitro Test 1; SK-UT-1B cells; 48 hours' incubation, then 14C-thymidine for a further 24 hours; IC50 of inhibition of incorporated 14C-thymidine; read-out: Inhibition of SKUT-1B proliferation. Type of data set: cell-based. An excerpt: Inhibition of the Proliferation of Cultivated Human Tumour Cells
Cells of the Leiomyosarcoma tumour cell line SK-UT-1B or non-small-cell lung tumour cell line NCI-H460 (obtained from the American Type Culture Collection (ATCC)) were cultivated in Minimum Essential Medium with non-essential amino acids (Gibco), supplemented with sodium pyruvate (1 mMol), glutamine (2 mMol) and 10% foetal calf serum (Gibco) or RPMI1640 Medium (Gibco) and 10% foetal calf serum (Gibco) and harvested in the logarithmic growth phase. Then the SK-UT-1B cells were placed in Cytostar® multi-well plates (Amersham) at a density of 4000 cells per well or 3000 cells per well for NCI-H460 cells and incubated overnight in an incubator. Various concentrations of the compounds (dissolved in DMSO; final concentration: 0.1%) were added to the cells. After 48 hours' incubation, ^14C-thymidine (Amersham) was added to each well and incubation was continued for a further 24 hours. The quantity of ^14C-thymidine which was incorporated into the tumour cells in the presence of the inhibitor and which represents the number of cells in the S phase was measured in a Wallace 1450 Microbeta Liquid Scintillation Counter. IC50 values for the inhibition of the proliferation (=inhibition of incorporated ^14C-thymidine) were calculated, correcting for the background radiation. All the measurements were done twice.
The following Table contains the results obtained with the in vitro Test 1 (++ denotes <0.01 μM, + denotes 0.01–1.0 μM): […]
(Incorporation of labelled thymidine or its analogues reports DNA synthesis.)
As for `CS(=O)(=O)Nc1ccc2c(c1)/C(=C(/Nc1ccc(CN3CCCCC3)cc1)c1ccccc1)C(=O)N2` [Example 98, (Z)-3-[1-(4-piperidinomethyl-phenylamino)-1-phenyl-methylidene]-5-methylsulphonylamino-2-indolinone], the pIC50 is 6.00 to 8.00.
Turning to `CCS(=O)(=O)Nc1ccc2c(c1)/C(=C(/Nc1ccc(CN3CCCC3)cc1)c1ccccc1)C(=O)N2` [Example 144, (Z)-3-{1-[4-(pyrrolidin-1-ylmethyl)-phenylamino]-1-phenyl-methylidene}-5-ethylsulphonylamino-2-indolinone], the pIC50 is 6.00 to 8.00.
Still for that read-out and setting: the figure for `CS(=O)(=O)Nc1ccc2c(c1)/C(=C(/Nc1ccc(CN3CCCC3)cc1)c1ccccc1)C(=O)N2` [Example 145, (Z)-3-{1-[4-(pyrrolidin-1-ylmethyl)-phenylamino]-1-phenyl-methylidene}-5-methylsulphonylamino-2-indolinone] is 6.00 to 8.00.
In the case of `O=C1Nc2ccc(NS(=O)(=O)c3ccccc3)cc2/C1=C(/Nc1ccc(C(=O)NCc2ccccc2)cc1)c1ccccc1` [Example 158, (Z)-3-{1-[4-(benzylaminocarbonyl)-phenylamino]-1-phenyl-methylidene}-5-phenylsulphonylamino-2-indolinone], the pIC50 is 6.00 to 8.00.
Take `CC(=O)N(CC(=O)N(C)C)c1ccc(N/C(=C2\C(=O)Nc3ccc(NS(=O)(=O)c4ccccc4)cc32)c2ccccc2)cc1` [Example 164, (Z)-3-{1-[4-(N-dimethylaminocarbonylmethyl-N-acetyl-amino)-phenylamino]-1-phenyl-methylidene}-5-phenylsulphonylamino-2-indolinone]: the pIC50 is 6.00 to 8.00.
Same read-out and setting: the figure for `CN(C)CCN(c1ccc(N/C(=C2\C(=O)Nc3ccc(N(C)S(=O)(=O)c4ccccc4)cc32)c2ccccc2)cc1)S(C)(=O)=O` [Example 207, (Z)-3-{1-[4-(N-(2-dimethylamino-ethyl)-N-methylsulphonyl-amino)-phenylamino)-1-phenyl-methylidene}-5-(N-methyl-N-phenylsulphonyl-amino)-2-indolinone] is 6.00 to 8.00.
